Reference: patent publication EP0884321A1, “Ascorbic acid 2-phosphate zinc salt and process for manufacturing the same” (priority 1997, dated 1998)
Structures can show the parent of a compound that is named as a salt. Where two headings read alike, the source gives them in different places.

Key:
[1] = cited from earlier work
[2] = Stability in buffer solution on storage (HPLC); assay type: physicochemical; conditions: about 0.1%, stored at 50°C for 476 hours; for Stability (100% = concentration before storage) pH: 8: 50 mM Tris-HCl; for Stability (100% = concentration before storage) pH: 5: 50 mM acetic acid-NaOH
Procedure: In the Examples and Test Examples, the analysis of an L-ascorbic acid 2-phosphate salt or an ion thereof was performed using an Ap-containing solution having a known concentration (prepared from L-ascorbic acid 2-phosphate magnesium salt) as a standard by an HPLC method using a Shodex IEC DEAE-825 resin (ammonium acetate 10 mM → 1M gradient, detected spectrophotometrically at 265 nm). The elemental analysis was performed by an ICP emission method, flame photometry and an ion chromatography method. Unless otherwise indicated, the reagents used herein were commercially available reagents.
The stability of L-ascorbic acid 2-phosphate zinc salt was compared to that of L-ascorbic acid 2-phosphate magnesium salt. Each salt was dissolved in a buffer solution (50 mM acetic acid-NaOH, pH: 5, or 50 mM Tris-HCl, pH: 8) to a concentration of about 0.1% and stored at 50°C for 476 hours. The concentrations of the L-ascorbic acid 2-phosphate before and after storage were analyzed by the HPLC method.

[3] = test system: B. subtilis (168 strain); test: Antimicrobial effect, turbidity in NUTRIENT BROTH; assay type: cell-based; conditions: 0.1% salt, pH 6.8, about 10^7 cells/ml, 37°C for 24 hours
Procedure: (§1) To NUTRIENT BROTH (produced by DIFCO), 0.1% of an L-ascorbic acid 2-phosphate salt was added thereto, and the pH was adjusted to 6.8 using hydrochloric acid or sodium hydroxide. Using 5 ml of the medium thus prepared, test bacterium were inoculated in a concentration of about 10^7 cells/ml and incubated in a test tube at 37°C for 24 hours. […] As a control, the same test was performed using a medium not containing an L-ascorbic acid 2-phosphate salt.

[4] = test system: E. coli (K-12 strain); test: Antimicrobial effect, turbidity in NUTRIENT BROTH; assay type: cell-based; conditions: 0.1% salt, pH 6.8, about 10^7 cells/ml, 37°C for 24 hours
Procedure: as §1

[5] = Solubility in water
[6] = background statement on known salts

| SMILES | concentration of aqueous solution that can be formed (solubility in water) [1, 6] | turbidity after incubation, B. subtilis (168 strain) [3] | turbidity after incubation, E. coli (K-12 strain) [4] | also measured |
| --- | --- | --- | --- | --- |
| O=C1O[C@H]([C@@H](O)CO)C(O)=C1OP(=O)(O)O [calcium salt] | scarcely dissolves in water |  |  |  |
| O=C1O[C@H]([C@@H](O)CO)C(O)=C1OP(=O)([O-])[O-].[Mg+2] [L-ascorbic acid 2-phosphate magnesium salt] | < 30% | + | + | Stability (100% = concentration before storage) pH: 8 ([2]; pH: 8): 95%; Stability (100% = concentration before storage) pH: 5 ([2]; pH: 5): 82% |
| O=C1O[C@H]([C@@H](O)CO)C(O)=C1OP(=O)([O-])[O-].[Na+].[Na+] |  | + | + | concentration of aqueous solution that can be formed (solubility in water) [1]: about 30% |
| O=C1O[C@H]([C@@H](O)CO)C(O)=C1OP(=O)([O-])[O-].[Zn+2] [L-ascorbic acid 2-phosphate zinc salt (Example 2)] |  |  |  | Stability (100% = concentration before storage) pH: 8 ([2]; pH: 8, 28560 min): 95%; Stability (100% = concentration before storage) pH: 5 ([2]; pH: 5, 28560 min): 92% |
| O=C1O[C@H]([C@@H](O)CO)C(O)=C1OP(=O)([O-])[O-].[Zn+2] [L-ascorbic acid 2-phosphate zinc salt] |  | - | - | remaining at 476 h ([2]; 50 mm acetic acid-naoh, pH 5, 50 mM acetic acid-NaOH, pH: 5, read-out: Stability (100% = concentration before storage) pH: 5): 91%; remaining at 476 h ([2]; 50 mm tris-hcl, pH 8, 50 mM Tris-HCl, pH: 8, read-out: Stability (100% = concentration before storage) pH: 8): 93%; solubility [5]: ≥ 500 mg/mL |
